Assay [1] has as its system RARγ receptors relative to RARα receptors. As to the kind of experiment: dissociation constants for RAR receptors (standard tests from cited references). To be noted: selectivity for RARγ relative to RARα. The assay is classed as binding, human. Here is the method: The dissociation constants are determined by means of tests which are standard to those skilled in the art. These tests are described in particular in the following references: (1) “Selective Synthetic Ligands for Nuclear Retinoic Acid Receptor Subtypes” in RETINOIDS, Progress in Research and Clinical Applications, Chapter 19 (pp 261-267), Marcel Dekker Inc., published by Maria A. Livrea and Lester Packer; (2) “Synthetic Retinoids: Receptor Selectivity and Biological Activity” in Pharmacol. Skin, Basle, Karger, 1993, Volume 5, pp. 117-127; (3) “Selective Synthetic Ligands for Human Nuclear Retinoic Acid Receptors” in Skin Pharmacology, 1992, Vol. 5, pp. 57-65; (4) “Identification of Synthetic Retinoids with Selectivity for Human Nuclear Retinoic Acid Receptor-γ” in Biochemical and Biophysical Research Communications, Vol. 186, No. 2, July 1992, pp. 977-983; (5) “Selective High Affinity RAR-α or RAR-β Retinoic Acid Receptor Ligands” in Mol. Pharmacol., Vol. 40, pp. 556-562.
In an advantageous manner, the retinoids which are selective for the RARγ receptors relative to the RARα receptors have an RARα/RARγ dissociation constant ratio greater than or equal to 8.

Assay [2] concerns keratinocytes. The experiment in a line: keratinocyte proliferation, XTT assay (Cell proliferation kit II). The class given is cell-based. (Tetrazolium dyes change colour on reduction, which living cells bring about.)
Experimental: The keratinocytes were obtained from a specimen of skin obtained from plastic surgery. They are used at the second passage. The cells are cultured at 37° C. in a humid atmosphere in the presence of 5% CO2 according to the method of Rheinwald and Green in the presence of 3T3 fibroblasts treated with mitomycin in MEM medium containing 10% (v/v) foetal calf serum (FCS), 0.4 μg/ml of hydrocortisone, 10 ng/ml of EGF (epidermal growth factor) and 10^−9 M chloleratoxin. The 3T3 cells are inoculated 24 h before the keratinocytes at a rate of 15,000 cells per cm^2. Next, the keratinocytes are inoculated at a rate of 4000 cells per cm^2. […] After culturing for 4 days, the cells are harvested in order to determine the proliferation. The cell proliferation is determined using a kit with the reference name “Cell proliferation kit II” (XTT assay) used according to the indications of the manufacturer (Boehringer, ref. 1465 05). It is expressed in absorbance units at 495 nm. The lower the value of the absorbance measured, the more the keratinocyte proliferation has been inhibited.

These results are taken from patent US6759396B1, “Compositions based on a synergistic mixture of at least one VDR ligand and a retinoid” (Centre International de Recherches Dermatalogiques Galderma …, priority 1995, dated 2004).

As for `CC1(C)CCC(C)(C)c2cc(C(O)C#Cc3ccc(C(=O)O)c(O)c3)ccc21` (centres unmarked) [2-hydroxy-4-[3-hydroxy-3-(5,6,7,8-tetrahydro-5,5,8,8-tetramethyl-2-naphthyl)-1-propynyl]benzoic acid], the “RARα/RARγ dissociation constant ratio” value in assay [1] stood at 36.6.

Regarding `O=C(O)c1ccc2cc(-c3ccc(O)c(C45CC6CC(CC(C6)C4)C5)c3)ccc2c1` [compound 1, 6-[3-(1-adamantyl)-4-hydroxyphenyl]-2-naphthoic acid], the “inhibition on keratinocyte proliferation” value in assay [2] (in combination with 1,25-dihydroxyvitamin D3, 4 days culture, FIGS. 1 and 2) was “very good inhibition”. In assay [1], the “RARα/RARγ dissociation constant ratio” value is 8.5.

On to `COc1ccc(-c2ccc3cc(C(=O)O)ccc3c2)cc1C12CC3CC(CC(C3)C1)C2` [6-[3-(1-adamantyl)-4-methoxyphenyl]-2-naphthoic acid], for which the “RARα/RARγ dissociation constant ratio” value in assay [1] worked out at 84.4.

On to `CC1=C(/C=C/C(C)=C/C=C/C(C)=C/C(=O)O)C(C)(C)CCC1` [all-trans retinoic acid, reference compound], for which the “synergism of inhibition on keratinocyte proliferation” value in assay [2] (in combination with 1,25-dihydroxyvitamin D3, identical conditions) is “No synergism”.
